In US20240197650A1, “Combination of Cinnamaldheyde and Eugenol with Antimycotic Activity” (priority 2021, published 2024):

Experiments:
C. glabrata = assay: Disk diffusion method, C. glabrata strains; format: cell-based
Description: (§1) A total of eighteen strains belonging to Candida spp. (15 C. albicans, 2 C. glabrata and 1 C. lusitaniae) derived from a collection of vaginal strains isolated in CHROMAgar Candida (BD Italia SpA, Milan, Italy) were grown on Potato Dextrose Agar (Oxoid Thermofisher SpA, Milan, Italy) at 35° C. for 24 hours.
(§2) Colonies were re-suspended in sterile saline at a density corresponding to #0.5 McFarland (opacity standard). #0.5 McF correspond to 1.4×10^6 colony forming units (CFU)/ml for C. albicans, 4.3×10^6 CFU/ml for C. glabrata and 3×10^6 CFU/ml for C. lusitaniae [Guinea J. et al., Rapid antifungal susceptibility determination for yeast isolates by use of Etest performed directly on blood samples from patients with fungemia, J Clin Microbiol. 2010 June, 48(6): 2205-12]. Then, the sensitivity test vs the two oils has been performed. The disk diffusion method was carried out as follows: for each tested strain, 4 plates of Potato Dextrose Agar (PDA) were seeded in 3 directions to produce a confluent growth, by sterile swab soaked in the cell suspension. Sorbent paper disks (Oxoid Thermofisher SpA, Milan, Italy) 6.0 mm diameter were placed on the agar surface and added with 10 μl of each essential oil. Disks soaked with 10 μg amphotericin B were used as positive control. Also disks of chlortrimazole (from 10 μg to 40 μg) were used, but the inhibition rings could not be clearly read due to the formation of a re-growth ring. Disks soaked with 10 μl pure dimethylsulphoxide (DMSO, Sigma-Aldrich, St. Louis, MO, USA) were used as negative control. The plates were incubated at 35° C. for 24 hours. All the experiments were carried out in duplicate. The inhibiting effect of the oils were considered to be effective when the inhibition ring was equal or greater than that caused by amphotericin B. For amphotericin B, an inhibition zone (IZ)≥15 mm was considered as “sensitivity”, from 10 to 14 mm as “intermediate sensitivity” and <10 mm as “resistance” [Kauser et al., Agreement of Direct Antifungal Susceptibility Testing from Positive Blood Culture Bottles with Conventional Method for Candida Species, J Clin Microbiol. 2016 February, 54(2):343-34].

[1] = tested on: L. acidophilus strain La-14; assay: Disk diffusion vs L. acidophilus; format: cell-based, Lactobacillus acidophilus; details: 10 μl oil per disk; MRS agar, 37° C. 24 hours, anaerobiosis
Description: The antibacterial activity of cinnamaldheyde and eugenol vs L. acidophilus was studied by using the disk diffusion method (reading scheme as reported in FIG. 1) and the microdilution method (reading scheme as reported in FIG. 2). A L. acidophilus strain named La-14 (Danisco SpA, Milan, Italy) was tested.
Colonies deriving from a 24-hour culture in DeManRogosaSharpe agar (MRS, OXOID SpA, Milan, Italy) were suspended in saline up to a concentration corresponding to #0.5 McFarland. A total of 3 plates of MRS agar were seeded in 3 directions to produce a confluent growth, by sterile swab soaked in the bacterial suspension. Sorbent paper disks 6.0 mm diameter were placed on each plate and soaked with 10 μl of each oil. Disks soaked with […] pure DMSO were used as negative control. The plates were incubated at 37° C. for 24 hours in anaerobiosis (anaerogen gaspack, OXOID SpA, Milan, Italy). The experiment was carried out in duplicate.

C. lusitaniae [2] = assay: Disk diffusion method, C. lusitaniae strain; format: cell-based; details: C. lusitaniae 1
Description: as §1
Colonies were re-suspended in sterile saline at a density corresponding to #0.5 McFarland (opacity standard). #0.5 McF correspond to 1.4×10^6 colony forming units (CFU)/ml for C. albicans, 4.3×10^6 CFU/ml for C. glabrata and 3×10^6 CFU/ml for C. lusitaniae [Guinea J. et al., Rapid antifungal susceptibility determination for yeast isolates by use of Etest performed directly on blood samples from patients with fungemia, J Clin Microbiol. 2010 June, 48(6): 2205-12]. Then, the sensitivity test vs the two oils has been performed. The disk diffusion method was carried out as follows: for each tested strain, 4 plates of Potato Dextrose Agar (PDA) were seeded in 3 directions to produce a confluent growth, by sterile swab soaked in the cell suspension. Sorbent paper disks (Oxoid Thermofisher SpA, Milan, Italy) 6.0 mm diameter were placed on the agar surface and added with 10 μl of each essential oil. Disks soaked with 10 μg amphotericin B were used as positive control. Also disks of chlortrimazole (from 10 μg to 40 μg) were used, but the inhibition rings could not be clearly read due to the formation of a re-growth ring. Disks soaked with 10 μl pure dimethylsulphoxide (DMSO, Sigma-Aldrich, St. Louis, MO, USA) were used as negative control. The plates were incubated at 35° C. for 24 hours. All the experiments were carried out in duplicate. […]

Candida spp. [3] = assay: Disk diffusion method, 18 Candida spp. strains (distribution); format: cell-based; details: for inhibition rings diameter, average (including 6.0 mm of the disk) / inhibition rings diameter, range (including 6.0 mm of the disk) / % inhibited strains: 18 strains; for inhibition rings diameter, average (including 6.0 mm of the disk) / inhibition rings diameter, range (including 6.0 mm of the disk): disk 10 μl oil or 10 μg amphotericin B, 35° C. 24 hours; for inhibition of the tested Candida strains (words) / inhibition rings compared with those caused by amphotericin B (10 μg): disks soaked with the oils separately; for % inhibited strains: ring equal or greater than that of amphotericin B
Description: as §1, §2

Candida spp. [4] = assay: Microdilution method MIC/MFC, 18 Candida spp. strains (distribution); format: cell-based; details: 18 strains
Description: as §1
(§3) The antifungal activity of amphotericin B and of cinnamaldheyde and eugenol were tested with the microdilution method as reported by Bona et al. [Bona et al., Sensitivity of Candida albicans to essential oils: are they an alternative to antifungal agents? J Appl Microbiol. 2016 December, 121(6): 1530-1545] with small changes. All the 18 Candida spp strains were tested. For each isolated, the colonies deriving from cultures (24 hours) in PDA were diluted in saline up to a concentration of 2×10^3 CFU/ml (so obtaining a final concentration of 10 3CGU/ml). Cinnamaldehyde and eugenol were dissolved in DMSO (80% oil, 20% DMSO), then diluted in Sabouraud broth up to a concentration of 8% v/v (so obtaining a final concentration of 4% v/v). Then, in a 96-well microtiter plate ½ serial dilution of amphotericin B (range 32-0.032 μg/ml, for a final range of 16-0.016 μg/ml) and of the essential oils (range 8-0.004% v/v, for a final range of 4-0.002% v/v) were carried out. Each well was then injected with 100 μl of cell suspension. The negative control contained DMSO diluted in Sabouraud broth (at 2% v/v, for a final concentration of 1% v/v). […] Each experiment was carried out in duplicate. The Minimum Inhibitory Concentration (MIC) was determined as the concentration of the oils in the first well which is not cloudy. The Minimum Fungicidal Concentration (MFC) was determined as the lowest concentration of the oils, with the agar culture showing the complete absence of fungal growth. The determination of the amphotericin B MIC was carried out also according to the EUCAST guidelines (cutoff 1 μg/ml) [https://eucast.org/astoffungi/clinicalbreakpointsforantifungals], all the results being consistent.

C. lusitaniae [5] = assay: Microdilution method MIC/MFC, C. lusitaniae strain; format: cell-based; details: C. lusitaniae 1
Description: as §1, §3

C. albicans = assay: Microdilution method MIC/MFC, C. albicans strains; format: cell-based
Description: as §1, §3

`O=CC=Cc1ccccc1` [Cinnamaldheyde, cinnamaldehyde] was tested, and the “Diameters of the inhibition rings (including 6.0 mm of the disk)” value (shortened to “Diameters of the inhibition rings”) (C. glabrata; C. glabrata 1) was 55.0 mm, the “Diameters of the inhibition rings” value (C. glabrata; C. glabrata 2) was 55.0 mm and the inhibition ring diameter [1] was 10 mm. For the same compound, the “Diameters of the inhibition rings” value (C. lusitaniae [2]) was 75.0 mm, the “inhibition rings diameter, average (including 6.0 mm of the disk)” value (Candida spp. [3]) was 69 mm and the “inhibition rings diameter, range (including 6.0 mm of the disk)” value (Candida spp. [3]) was 55-75 mm. For the same compound, the “inhibition of the tested Candida strains (words)” value (“inhibition … (words)” for short) (Candida spp. [3]) was “inhibited all tested strains”, the “inhibition rings compared with those caused by amphotericin B (10 μg)” value (Candida spp. [3]) was “notably greater” and the “inhibition … (words)” value (Candida spp. [3]; listed as cinnamaldheyde) was “inhibited the growth of all tested Candida strains”. For the same compound, the “% inhibited strains” value (Candida spp. [3]) was 100% (18/18), the MFC average (Candida spp. [4]) was 0.01 % v/v and the MIC average (Candida spp. [4]) was 0.0048 % v/v. The MFC (C. lusitaniae [5]) was no more than 0.002 % v/v, the MIC (C. lusitaniae [5]) was no more than 0.002 % v/v and the MFC (C. albicans; C. albicans 1) was 0.008 % v/v. For the same compound, the MIC (C. albicans; C. albicans 1) was 0.004 % v/v, the MFC (C. albicans; C. albicans 2) was 0.008 % v/v and the MIC (C. albicans; C. albicans 2) was 0.004 % v/v. For the same compound, the MFC (C. albicans; C. albicans 3) was 0.004 % v/v, the MIC (C. albicans; C. albicans 3) was 0.004 % v/v and the MFC (C. albicans; C. albicans 4) was 0.008 % v/v. It also gave an MIC (C. albicans; C. albicans 4) of no more than 0.002 % v/v, an MFC (C. albicans; C. albicans 5) of 0.004 % v/v and an MIC (C. albicans; C. albicans 5) of 0.004 % v/v. For the same compound, the MFC (C. albicans; C. albicans 6) was 0.008 % v/v, the MIC (C. albicans; C. albicans 6) was 0.004 % v/v and the MFC (C. albicans; C. albicans 7) was 0.008 % v/v. It also gave an MIC (C. albicans; C. albicans 7) of no more than 0.002 % v/v, an MFC (C. albicans; C. albicans 8) of 0.008 % v/v and an MIC (C. albicans; C. albicans 8) of 0.004 % v/v. The MFC (C. albicans; C. albicans 9) was 0.064 % v/v, the MIC (C. albicans; C. albicans 9) was 0.016 % v/v and the MFC (C. albicans; C. albicans 10) was no more than 0.002 % v/v. It also gave an MIC (C. albicans; C. albicans 10) of no more than 0.002 % v/v, an MFC (C. albicans; C. albicans 11) of no more than 0.002 % v/v and an MIC (C. albicans; C. albicans 11) of no more than 0.002 % v/v. It also gave an MFC (C. albicans; C. albicans 12) of no more than 0.002 % v/v, an MIC (C. albicans; C. albicans 12) of no more than 0.002 % v/v and an MFC (C. albicans; C. albicans 13) of 0.016 % v/v. It also gave an MIC (C. albicans; C. albicans 13) of 0.008 % v/v, an MFC (C. albicans; C. albicans 14) of 0.016 % v/v and an MIC (C. albicans; C. albicans 14) of 0.004 % v/v. The MFC (C. albicans; C. albicans 15) was 0.008 % v/v and the MIC (C. albicans; C. albicans 15) was 0.004 % v/v.

`C=CCc1ccc(O)c(OC)c1` [Eugenol, eugenol] was tested, and the “Diameters of the inhibition rings” value (C. glabrata; C. glabrata 1) was 35.0 mm, the “Diameters of the inhibition rings” value (C. glabrata; C. glabrata 2) was 30.5 mm and the inhibition ring diameter [1] was “did not produced any inhibition ring”. The “Diameters of the inhibition rings” value (C. lusitaniae [2]) was 43.0 mm, the “inhibition rings diameter, average (including 6.0 mm of the disk)” value (Candida spp. [3]) was 35.2 mm and the “inhibition rings diameter, range (including 6.0 mm of the disk)” value (Candida spp. [3]) was 30.5-41 mm. For the same compound, the “inhibition … (words)” value (Candida spp. [3]) was “inhibited the growth of all tested Candida strains”, the “inhibition rings compared with those caused by amphotericin B (10 μg)” value (Candida spp. [3]) was “notably greater” and the “% inhibited strains” value (Candida spp. [3]) was 100% (18/18). The MFC average (Candida spp. [4]) was 0.067 % v/v, the MIC average (Candida spp. [4]) was 0.043 % v/v and the MFC (C. lusitaniae [5]) was 0.064 % v/v. The MIC (C. lusitaniae [5]) was 0.032 % v/v, the MFC (C. albicans; C. albicans 1) was 0.032 % v/v and the MIC (C. albicans; C. albicans 1) was 0.032 % v/v. For the same compound, the MFC (C. albicans; C. albicans 2) was 0.032 % v/v, the MIC (C. albicans; C. albicans 2) was 0.032 % v/v and the MFC (C. albicans; C. albicans 3) was 0.032 % v/v. For the same compound, the MIC (C. albicans; C. albicans 3) was 0.016 % v/v, the MFC (C. albicans; C. albicans 4) was 0.064 % v/v and the MIC (C. albicans; C. albicans 4) was 0.064 % v/v. It also gave an MFC (C. albicans; C. albicans 5) of 0.032 % v/v, an MIC (C. albicans; C. albicans 5) of 0.008 % v/v and an MFC (C. albicans; C. albicans 6) of 0.032 % v/v. For the same compound, the MIC (C. albicans; C. albicans 6) was 0.032 % v/v, the MFC (C. albicans; C. albicans 7) was 0.064 % v/v and the MIC (C. albicans; C. albicans 7) was 0.032 % v/v. The MFC (C. albicans; C. albicans 8) was 0.032 % v/v, the MIC (C. albicans; C. albicans 8) was 0.032 % v/v and the MFC (C. albicans; C. albicans 9) was 0.125 % v/v. For the same compound, the MIC (C. albicans; C. albicans 9) was 0.125 % v/v, the MFC (C. albicans; C. albicans 10) was 0.016 % v/v and the MIC (C. albicans; C. albicans 10) was 0.016 % v/v. The MFC (C. albicans; C. albicans 11) was 0.125 % v/v, the MIC (C. albicans; C. albicans 11) was 0.064 % v/v and the MFC (C. albicans; C. albicans 12) was 0.064 % v/v. The MIC (C. albicans; C. albicans 12) was 0.016 % v/v, the MFC (C. albicans; C. albicans 13) was 0.125 % v/v and the MIC (C. albicans; C. albicans 13) was 0.064 % v/v. For the same compound, the MFC (C. albicans; C. albicans 14) was 0.125 % v/v, the MIC (C. albicans; C. albicans 14) was 0.032 % v/v and the MFC (C. albicans; C. albicans 15) was 0.064 % v/v. It also gave an MIC (C. albicans; C. albicans 15) of 0.032 % v/v.
